Legend:
βlox5 cells [1] = assay: RT-PCR analysis of pancreatic hormone gene expression in βlox5 cells; format: cell-based, human; settings: for hormone expression in βlox5 cells: βlox5 cells expressing PDX-1, data not shown
Excerpt: FIG. 2: RT-PCR analysis of pancreatic hormone gene expression in βlox5. The conditions tested were βlox5 cells grown in monolayer culture, βlox5 cells infected with a retroviral vector expressing PDX-1, βlox5 cells grown as three-dimensional aggregates, and βlox5 cells treated with exendin-4. FIG. 2(A) insulin; FIG. 2(B) quantitative RT-PCR analysis of insulin gene expression; FIG. 2(C) other pancreatic hormones. Aggregation of cells into three-dimensional clusters and the retroviral vector expressing PDX-1 have been described previously (Itkin-Ansari et al., submitted). Exendin-4 (Sigma) was used at a concentration of 10 nM. RT-PCR for insulin, somatostatin, glucagon, and IAPP have been described previously (Itkin-Ansari et al., submitted). Quantitative RT-PCR was done by interpolation from a standard curve constructed using a plasmid containing the human insulin cDNA.
PDX-1 also acted synergistically with cell-cell contact to further increase the level of […] expression about 1,000-fold above the cells not expressing PDX-1, to a level similar to that found in normal human islets. To determine whether βlox5 could be induced to express pancreatic hormones, recombinant PDX-1 was expressed in βlox5 using a retroviral vector. […] Therefore, other factors were examined for their ability to induce hormone expression in βlox5 cells expressing PDX-1. Activin and betacellulin have been reported to be able to induce endocrine differentiation in cell lines and primary cells (Mashima et al., Diabetes 48:304-9 (1999), Huotari et al., Endocrinology 139, 1494-9 (1998), Mashima et al., J Clin Invest 97:1647-54 (1996), Yamaoka et al, J Clin Invest 102:294-301 (1998)). However, they had no effect on hormone expression in βlox5 cells (data not shown).
GLP-1, a small peptide cleaved from the proglucagon molecule, is an insulin secretogogue Drucker et al., Diabetes 47:159-69 (1998)).
By itself, exendin-4 had no effect on hormone expression in βlox5 (FIG. 2A, lane 8). […] The nature of the interaction between exendin-4, cell-cell contact, and PDX-1 is evident from the fact that no hormone mRNA was detectable with any one or two of the three inducing factors (FIG. 2A). […] Islet amyloid polypeptide (IAPP) mRNA, a hormone that is co-secreted with insulin, was also expressed in induced βlox5 cells (FIG. 2C, lane 2). However, the other major pancreatic hormones, glucagon, somatostatin, and pancreatic polypeptide (PP), were not induced (FIG. 2C).

βlox5 cells [2] = assay: Analysis of transcription factors expressed in βlox5 cells (RT-PCR, Western blot); format: cell-based, human
Description: FIG. 3: Analysis of transcription factors expressed in βlox5 cells. FIG. 3(A) electrophoretic mobility shift assay (EMSA) of PDX-1. EM5A for PDX-1 was performed using a probe derived from the human insulin promoter A5 element. FIGS. 3(B&C) RT-PCR analysis of BETA2 and Pax6. FIG. 3(D) Western blot analysis of CREB. FIG. 3(E) EMSA of RIPE3b.
The expression of transcription factors important in β-cell development was examined to determine whether they had been induced by PDX-1, cell-cell contact, and exendin-4. […] GLP-1 has been reported to increase cAMP levels and this has been thought to be a major mechanism by which GLP-1 acts as an insulin secretogogue (Serre et al., Endocrinology 139:4448-54 (1998)). […] RIPE3b, a factor that plays a critical role in insulin gene expression but that has not yet been cloned, is expressed in βlox5 irrespective of PDX-1, cell-cell contact, or exendin-4 (FIG. 3E).

[3] = induced βlox5 cells (PDX-1, cell-cell contact, exendin-4 10 nM)

| Molecule | hormone expression in βlox5 cells (βlox5 cells [1]) | BETA2 expression (βlox5 cells [2]; PDX-1, cell-cell contact and exendin-4, RT-PCR) | CREB expression (βlox5 cells [2]; exendin-4 alone, independently of cell-cell contact and PDX-1, Western blot) | hormone expression in βlox5 (βlox5 cells [1]; exendin-4 by itself, 10 nM, four days, no PDX-1, no aggregation) | Islet amyloid polypeptide (IAPP) mRNA (βlox5 cells [1]; [3]) | glucagon, somatostatin and pancreatic polypeptide (PP) expression (βlox5 cells [1]; [3]) | insulin mRNA (βlox5 cells [1]; βlox5 cells expressing PDX-1, suspension culture as three-dimensional aggregates, 10 nM exendin-4 for four days) |
| --- | --- | --- | --- | --- | --- | --- | --- |
| Activin | no effect |  |  |  |  |  |  |
| exendin-4 |  | induced only by the combination of all three inducing factors | induced | no effect | expressed | not induced | substantial amount of insulin mRNA was detectable |
| betacellulin (protein, UniProt P35070 32-111, looked up, factor reported to be able to induce endocrine differentiation in cell lines and primary cells) Betacellulin: DGNSTRSPETNGLLCGDPEENCAATTTQSKRKGHFSRCPKQYKHYCIKGRCRFVVAEQTPSCVCDEGYIGARCERVDLFY | no effect |  |  |  |  |  |  |

— patent US7276352B2, “Induction of β cell differentiation in human cells by stimulation of the GLP-1 receptor” (The Regents of the University of California, priority 2000, dated 2007)
